Assay results taken from paper PMC7969873 (Cell Reports, 2021).
Where two headings read alike, the source gives them in different places.

Key:
SARS-CoV-2 [1] = test: microbe, parasite or virus in culture; format: cell-based; details: Vero E6 cells; IFA; read-out: IC50, inhibition of SARS-CoV-2 infectivity
human primary lung cells = test: Toxicity in human primary lung cells; format: cell-based
SARS-CoV-2 [2] = test: SARS-CoV-2 infection of HEK293-ACE2 cells (IFA); format: cell-based; details: 100 nM, 48 hpi
SARS-CoV-2 [3] = format: cell-based; details: hiPSC-CMs, 250 nM
MERS-CoV = test: microbe, parasite or virus in culture; format: cell-based; details: Middle East respiratory syndrome-related coronavirus, Calu-3, read-out: IC50, MERS-CoV viral titer
SARS-CoV-2 [4] = test: microbe, parasite or virus in culture; format: cell-based
[5] = HeLa-ACE2 uninfected host cell cytotoxicity counter screen; format: cell-based; details: human, uninfected HeLa-ACE2 cells; read-out: median cytotoxic concentration (CC50)
Experimental: Compounds were acoustically transferred into 1,536-well μclear plates (Greiner Part. No. 789091). HeLa-ACE2 cells were maintained as described for the infection assay and seeded in the assay-ready plates at 400 cells/well in DMEM with 2% FBS and plates were incubated for 24 hours at 37°C 5% CO2. To assess cell viability, the Image-iT DEAD green reagent (Thermo Fisher) was used according to manufacturer instructions. Cells were fixed with 4% paraformaldehyde, and counterstained with DAPI.

SARS-CoV-2 [6] = test system: SARS-CoV-2
SARS-CoV-2 [7] = test: microbe, parasite or virus in culture; format: cell-based; details: Severe acute respiratory syndrome coronavirus 2, Calu-3 cells, read-out: IC50, SARS-CoV-2 viral titer
IL6 = IL6 gene expression in SARS-CoV-2-infected Vero E6 cells (RT-qPCR); format: cell-based
[8] = set-up: method as in earlier work; details: cancer setting, phases 1 and 2, ref Konstantinopoulos et al., 2020, Yap et al., Thomas et al., 2018; cited from earlier work
hiPSC-CMs = test: Cardiomyocyte beating / in vitro cardiotoxicity in hiPSC-CMs; format: cell-based, human; details: hiPSC-CMs; 250 nM
Experimental: Thus, we used the human-induced pluripotent stem-cell-derived cardiomyocyte (hiPSC-CM) system for antiviral drug testing against SARS-CoV-2. […] Thus, this cardiomyocyte system is useful for antiviral drug testing against SARS-CoV-2. […] The inhibition of virus production by berzosertib was evaluated by quantifying the infectious virus (TCID50) in the supernatant at various time points (Figure 2B). […] Infection of cardiomyocytes with SARS-CoV-2 was confirmed by specific staining of cardiac troponin T (cTnT) and viral spike proteins (Figure 2E). Untreated SARS-CoV-2-infected cells had infection-mediated cell injury with disrupted troponin T fibers.

SARS-CoV-2 [9] = format: cell-based; details: 250 nM, Vero E6 cells, 48 h
ATR = test system: ATR; set-up: method as in vendor Selleckchem; details: HT29 cells; ref vendor Selleckchem; read-out: IC50, ATR inhibition; cited from earlier work
[10] = test system: CHK1 phosphorylation (pCHK1); test: CHK1 phosphorylation in Vero E6 cells (western blot); format: cell-based
Experimental: Cells were lysed in 50 mM Tris pH 7.4, 1% NP-40, 0.25% sodium deoxycholate, 1 mM EDTA, 150 mM NaCl, 1 mM Na3VO4, […], 1mM PMSF, 2 mg ml^-1 aprotinin, 2 mg ml^-1 leupeptin and 0.7 mg ml^-1 pepstatin or Laemmli Sample Buffer (Bio Rad, Hercules, CA). Cell lysates were resolved by SDS-PAGE using 10% gradient gels and transferred to a 0.2 μm PVDF membrane. Subsequently, the membranes were blocked with 5% skim milk and 0.1% Tween-20 in 1x TBST (0.1% Tween-20) at room temperature for 1 hour. The membranes were then probed with respective monoclonal antibodies and detected by Thermo Scientific SuperSignal West Femto Maximum Sensitivity Substrate.

SARS-CoV-2 [11] = test: microbe, parasite or virus in culture; format: cell-based; details: for IC50: Severe acute respiratory syndrome coronavirus 2, A549-ACE2, 24 h, 24 h, read-out: IC50, SARS-CoV-2 immunostaining signal
SARS-CoV-2 [12] = test: SARS-CoV-2 replication kinetics in Vero E6 cells (RT-qPCR genome copies, western blot); format: cell-based; details: for viral genome and protein production: from 8 h onward
SARS-CoV-1 = test: microbe, parasite or virus in culture; format: cell-based; details: Severe acute respiratory syndrome coronavirus, Calu-3, read-out: IC50, SARS-CoV-1 viral titer
Calu-3 cells = test: Cell viability assay (MTT) in Calu-3 cells; format: cell-based, human
Experimental: Calu-3 and A549-ACE2 were seeded in 96-well plates with 3.5 × 10^5 cells/ml, 100 μL per well, for 24 h. The compounds to be tested or pure DMSO as […] control were serially diluted in CoV infection medium (DMEM, supplemented with 1 % L-glu, 1 % P/S and 2 % FBS) to obtain 5-fold of the desired final concentrations. The growth medium was removed from the cells and replaced with 80 μl/well of fresh infection medium. Subsequently, 20 μL of the diluted compounds were added in quadruplicates for each concentration (i.e., 5-fold dilution to reach the final concentrations). Cells were incubated for 48 h at 37°C (5% CO2, 96 % rH). At 48 h post treatment, cell viability was measured on a Tecan Safire 2 plate reader using the CellTiter 96® Non-Radioactive Cell Proliferation Assay (MTT) (Promega) according to manufacturer’s instructions.

## CNCc1ccc(-c2cc(-c3nc(-c4ccc(S(=O)(=O)C(C)C)cc4)cnc3N)on2)cc1 [Berzosertib]
SARS-CoV-2 [1]
  IC50: < 25 nM
Human primary lung cells
  concentration with detectable toxicity: > 50 µM
SARS-CoV-2 [2]
  inhibition of virus replication: complete inhibition
SARS-CoV-2 [3]
  virus production (infectious virus, TCID50, in supernatant): significantly reduced
SARS-CoV-2 [3]; cleaved caspase-3
  apoptotic cell death associated with viral infection: significantly reduced
MERS-CoV
  IC50: 290 nM
SARS-CoV-2 [4]
  inhibition of SARS-CoV-2: effective
SARS-CoV-2 [4]; Severe acute respiratory syndrome coronavirus 2, human primary lung cells
  IC50: 40 nM
[5]
  CC50 at 24 h: 3890 nM
SARS-CoV-2 [6]; HeLa-ACE2 cells
  median effective dose (ED50), percentage of infected cells: 200 nM
SARS-CoV-2 [6]; SARS-CoV-2-infected HeLa-ACE2 cells
  total cells per well (cytotoxic effect at active concentrations): did not change
SARS-CoV-2 [7]
  IC50: 480 nM
IL6
  viral-mediated induction of pro-inflammatory gene IL6: reduced
[8]
  tolerability in oncology clinical studies: well tolerated
hiPSC-CMs
  in vitro cardiotoxicity: No in vitro cardiotoxicity
SARS-CoV-2 [9]
  antiviral activity (prevention of viral CPE) in primary screen: antiviral activity
ATR
  IC50: 19 nM
[10]
  phosphorylation of CHK1: reduced
SARS-CoV-2 [11]
  combination effect (isobologram, Compusyn): synergistic
  IC50: 240 nM
SARS-CoV-2 [11]; A549-ACE2 cells
  selectivity index (SI): 204
SARS-CoV-2 [11]; A549-ACE2 cells, […]
  IC50: 220 ± 30 nM
SARS-CoV-2 [12]; 2 hpi
  number of viral genome copies at 2 hpi (entry): not affected
SARS-CoV-2 [12]
  viral genome and protein production: inhibited
SARS-CoV-2 [12]; listed as berzosertib
  viral genome and protein production: significantly reduced
SARS-CoV-1
  IC50: 320 nM
Calu-3 cells
  concentration with detectable toxicity: > 50 µM
